Reference: patent US20250122225A1, “MASP-2 INHIBITORS AND METHODS OF USE” (Omeros Corporation, priority 2023, published 2025)
Where a name gives a salt, the structure may show the parent alone.

Key:
[1] = target: T1, MASP-2 (CCP1-CCP2-SP) (Homo sapiens, UniProt O00187); experiment: Enzymatic assay for MASP-2 inhibitory activity (fluorogenic substrate); assay type: biochemical
T1 construct: 15 μL of Enzyme MASP-2 (CCP1-CCP2-SP) in Assay Buffer
Protocol: The MASP-2 assay utilizes a fluorogenic substrate, based on the cleavage site for its natural substrate C2. The assay was run at room temperature in an assay buffer containing 20 mM HEPES, pH 7.4, 140 mM NaCl and 0.1% Tween 20. Assay parameters were adjusted such that the assay was linear with respect to time, enzyme, and substrate concentrations. Under the optimized assays conditions, IC50 values were equivalent to Ki values, except in the few cases of “tight binding” inhibitors. Cases of “tight binding” or possible “slow binding” inhibitors were handled by the methods described in Copeland R. A. (2013) Evaluation of Enzyme Inhibitors in Drug Discovery. 2nd Ed., John Wiley and Sons, Inc., Chapters 5-7.
The MASP-2 assay protocol was carried out as follows. Test compounds were serially diluted in DMSO and then 100 nL of each dilution was transferred to the assay plate(s). 10 μL of Assay Buffer was added, followed by 15 μL of Enzyme MASP-2 (CCP1-CCP2-SP) in Assay Buffer. 15 μL of Substrate in Assay Buffer was then added and the mixture was mixed to start the reaction. After 20 min at room temperature, 15 μL of a stop solution (0.1 M acetic acid) was added, the sample was mixed, and the plates were read on a SpectraMax i3x Microplate Reader with the data exported as an Excel file. Each assay plate included a “no inhibitor” (DMSO only) control, a “no enzyme” control, and a reference inhibitor control. % Activity values=100*(average test comp. fluorescence−average “no enzyme” fluorescence)/(average “DMSO only” fluorescence−average “no enzyme” fluorescence). IC50 and Ki replicate values were very reproducible, with values well within ±2-fold.

[2] = target: T2, human α-thrombin (Homo sapiens, UniProt P00734); experiment: Enzymatic assay for thrombin (fluorogenic peptide substrate Boc-VPR-AMC); assay type: biochemical
T2 construct: enzyme (human α-thrombin (BioPharm® Lab.)) in assay buffer; purchased BioPharm® Lab
Protocol: The thrombin assay utilizes a fluorogenic peptide substrate (Boc-VPR-AMC (R&D Systems) and was run at room temperature in an assay buffer containing 20 mM Hepes, pH 7.4, 140 mM NaCl and 0.1% Tween 20. Assay parameters were adjusted such that the assay was linear with respect to time, enzyme, and substrate concentrations. Under these optimized assays conditions, IC50 values were equivalent to Ki values, except in a few cases of “tight binding” inhibitors. Cases of “tight binding” or possible “slow binding” inhibitors were handled by the methods described in Copeland R. A. (2013) Evaluation of Enzyme Inhibitors in Drug Discovery. 2nd Ed. John Wiley and Sons, Inc., Chapters 5-7.
The thrombin assay protocol was carried out as follows. Test compounds were serially diluted in DMSO and then 100 nL of each dilution was transferred to the assay plate(s). 10 μL of Assay Buffer was added, followed by 15 μL of enzyme (human α-thrombin (BioPharm® Lab.)) in assay buffer. 15 μL of substrate in assay buffer was then added and the sample mixed to start the reaction. After 20 min at room temperature, 15 μL of a stop solution (0.1 M acetic acid) was added, the sample was mixed, and the plates were read on a SpectraMax® i3x Microplate Reader with the data exported as Excel files. Each assay plate included a “no inhibitor” (DMSO only) control, a “no enzyme” control, and a reference inhibitor control. % Activity values=100*(ave. test comp. fluorescence−ave. “no enz” fluorescence)/(ave. “DMSO only” fluorescence−ave. “no enz” fluorescence). IC50 and Ki values were very reproducible, with values falling well within ±2-fold.

T1 sequence (O00187 445-686 limits assumed): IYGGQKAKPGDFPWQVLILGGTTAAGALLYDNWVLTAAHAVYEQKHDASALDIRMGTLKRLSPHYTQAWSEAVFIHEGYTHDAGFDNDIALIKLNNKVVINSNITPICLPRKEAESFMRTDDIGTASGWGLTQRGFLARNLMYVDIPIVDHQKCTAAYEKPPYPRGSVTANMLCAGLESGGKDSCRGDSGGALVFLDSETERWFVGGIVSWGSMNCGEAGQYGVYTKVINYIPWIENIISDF
T1 sequence (O00187 287-444 partner limits assumed): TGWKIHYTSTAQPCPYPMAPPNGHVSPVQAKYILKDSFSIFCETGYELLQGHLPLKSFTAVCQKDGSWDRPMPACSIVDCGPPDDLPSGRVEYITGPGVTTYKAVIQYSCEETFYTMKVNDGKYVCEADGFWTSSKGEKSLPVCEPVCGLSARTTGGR

Ki [1] [nM] | Ki [2] [nM] | SMILES
< 500 | < 500 | COc1cc(F)cc(CNc2ncc3n(c2=O)[C@H](C(=O)NCc2ccc(N)nc2C)CC3)c1 [Compound 171, (S)-N-((6-amino-2-methylpyridin-3-yl)methyl)-3-((3-fluoro-5-methoxybenzyl)amino)-4-oxo-4,6,7,8-tetrahydropyrrolo[1,2-a]pyrazine-6-carboxamide trifluoroacetate]
< 500 | < 500 | COc1cc(C)cc(CNc2ncc3n(c2=O)[C@H](C(=O)NCc2cc4c(s2)CNC4)CC3)c1 [Compound 91, (S)-N-((5,6-dihydro-4H-thieno[2,3-c]pyrrol-2-yl)methyl)-3-((3-methoxy-5-methylbenzyl)amino)-4-oxo-4,6,7,8-tetrahydropyrrolo[1,2-a]pyrazine-6-carboxamide]
< 500 | 10000 to 25000 | Cc1cc2[nH]c(CNC(=O)[C@@H]3CCc4cnc(NCc5cc(F)ccc5C)c(=O)n43)cc2cn1 [Compound 64, (S)-3-((5-fluoro-2-methylbenzyl)amino)-N-((6-methyl-1H-pyrrolo[3,2-c]pyridin-2-yl)methyl)-4-oxo-4,6,7,8-tetrahydropyrrolo[1,2-a]pyrazine-6-carboxamide]
< 500 | < 500 | Cc1cc(F)cc(CNc2ncc3n(c2=O)[C@@H](C(=O)NCc2ccc(N)nc2C)CC3)c1 [Compound 163, (R)—N-((6-amino-2-methylpyridin-3-yl)methyl)-3-((3-fluoro-5-methylbenzyl)amino)-4-oxo-4,6,7,8-tetrahydropyrrolo[1,2-a]pyrazine-6-carboxamide]
< 500 | 500 to 2500 | COc1cc(C)cc(CNc2nc(Cl)c3n(c2=O)[C@H](C(=O)NCc2ccc(N)nc2C)CC3)c1 [Compound 8, (S)-N-((6-amino-2-methylpyridin-3-yl)methyl)-1-chloro-3-((3-methoxy-5-methylbenzyl)amino)-4-oxo-4,6,7,8-tetrahydropyrrolo[1,2-a]pyrazine-6-carboxamide]
< 500 | 500 to 2500 | Cc1cc(C)cc(CNc2ncc3n(c2=O)[C@H](C(=O)N[C@H](C)c2ccc(N)nc2C)CC3)c1 [Compound 238]
< 500 | 2500 to 10000 | Cc1cc(C)cc(CNc2ncc3n(c2=O)[C@H](C(=O)N[C@H](C)c2ccc(N)nc2)CC3)c1 [Compound 198, (S)-N-((R)-1-(6-aminopyridin-3-yl)ethyl)-3-((3,5-dimethylbenzyl)amino)-4-oxo-4,6,7,8-tetrahydropyrrolo[1,2-a]pyrazine-6-carboxamide trifluoroacetate]
< 500 | > 25000 | Cc1cc(C)cc(CNc2ncc3n(c2=O)[C@H](C(=O)NCc2cc4cnc(C)cc4[nH]2)CC32CC2)c1 [Compound 124, (S)-3′-((3,5-dimethylbenzyl)amino)-N-((6-methyl-1H-pyrrolo[3,2-c]pyridin-2-yl)methyl)-4′-oxo-6′,7′-dihydro-4′H-spiro[cyclopropane-1,8′-pyrrolo[1,2-a]pyrazine]-6′-carboxamide trifluoroacetate]

The next lines start with the compound.

SMILES | Ki [1] [nM] | Ki [2] [nM]
CC[C@H]1C[C@@H](C(=O)NCc2cc3c(s2)CNC3)n2c1cnc(NCc1ccccc1)c2=O [Compound 161, (6S,8S)-3-(benzylamino)-N-((5,6-dihydro-4H-thieno[2,3-c]pyrrol-2-yl)methyl)-8-ethyl-4-oxo-4,6,7,8-tetrahydropyrrolo[1,2-a]pyrazine-6-carboxamide hydrochloride] | < 500 | 500 to 2500
O=C(NCc1cc2cnccc2[nH]1)[C@@H]1CCc2c(Cl)nc(NCCc3ccccc3)c(=O)n21 [Compound 249] | < 500 | 500 to 2500
CC[C@@H](Nc1ncc2n(c1=O)[C@H](C(=O)NCc1cc3c(s1)CNC3)CC2)c1ccc(C)cc1 [Compound 266, (S)-N-((5,6-dihydro-4H-thieno[2,3-c]pyrrol-2-yl)methyl)-4-oxo-3-(((R)-1-(p-tolyl)propyl)amino)-4,6,7,8-tetrahydropyrrolo[1,2-a]pyrazine-6-carboxamide trifluoroacetate] | < 500 | < 500
O=C(NCc1cc2cnccc2[nH]1)[C@@H]1CCc2c(C3CC3)nc(NCCc3ccccc3)c(=O)n21 [Compound 247] | < 500 | 500 to 2500
Cc1cc(F)cc(CNc2nc(-c3ccccc3)c3n(c2=O)[C@H](C(=O)NCc2ccc(N)nc2C)CC3)c1 [Compound 217, (S)-N-((6-amino-2-methylpyridin-3-yl)methyl)-3-((3-fluoro-5-methylbenzyl)amino)-4-oxo-1-phenyl-4,6,7,8-tetrahydropyrrolo[1,2-a]pyrazine-6-carboxamide trifluoroacetate] | < 500 | > 25000
C[C@@H](NC(=O)[C@@H]1CCc2cnc(N[C@@H](c3ccccc3)C3CC3)c(=O)n21)c1cc2c(s1)CNC2 [Compound 272, (S)-3-(((R)-cyclopropyl(phenyl)methyl)amino)-N-((R)-1-(5,6-dihydro-4H-thieno[2,3-c]pyrrol-2-yl)ethyl)-4-oxo-4,6,7,8-tetrahydropyrrolo[1,2-a]pyrazine-6-carboxamide trifluoroacetate] | < 500 | 2500 to 10000
O=C(NCc1cc2cnccc2[nH]1)[C@@H]1CC2(CCCC2)c2c(Cl)nc(NCc3ccccc3)c(=O)n21 [Compound 231, (S)—N-((1H-pyrrolo[3,2-c]pyridin-2-yl)methyl)-3′-(benzylamino)-1′-chloro-4′-oxo-6′,7′-dihydro-4′H-spiro[cyclopentane-1,8′-pyrrolo[1,2-a]pyrazine]-6′-carboxamide trifluoroacetate] | < 500 | 10000 to 25000
Cc1cccc(CNc2nc(Cl)c3n(c2=O)[C@H](C(=O)NCc2cc4cnccc4[nH]2)CC3)c1F [Compound 13, (S)-N-((1H-pyrrolo[3,2-c]pyridin-2-yl)methyl)-1-chloro-3-((2-fluoro-3-methylbenzyl)amino)-4-oxo-4,6,7,8-tetrahydropyrrolo[1,2-a]pyrazine-6-carboxamide] | < 500 | 10000 to 25000
Cc1ccc(C)c(CNc2nc(Cl)c3n(c2=O)[C@H](C(=O)NCc2cc4cnccc4[nH]2)CC3)c1 [Compound 11, (S)-N-((1H-pyrrolo[3,2-c]pyridin-2-yl)methyl)-1-chloro-3-((2,5-dimethylbenzyl)amino)-4-oxo-4,6,7,8-tetrahydropyrrolo[1,2-a]pyrazine-6-carboxamide] | < 500 | 10000 to 25000
CC(C)(O)c1cccc(CNc2ncc3n(c2=O)[C@H](C(=O)NCc2cc4cnccc4[nH]2)CC3)c1 [Compound 67, (S)-N-((1H-pyrrolo[3,2-c]pyridin-2-yl)methyl)-3-((3-(2-hydroxypropan-2-yl)benzyl)amino)-4-oxo-4,6,7,8-tetrahydropyrrolo[1,2-a]pyrazine-6-carboxamide] | < 500 | 500 to 2500
C[C@H](NC(=O)[C@@H]1CCc2cnc(N[C@@H](c3ccccc3)C3CC3)c(=O)n21)c1cc2c(s1)CNC2 [Compound 273, (S)-3-(((R)-cyclopropyl(phenyl)methyl)amino)-N-((S)-1-(5,6-dihydro-4H-thieno[2,3-c]pyrrol-2-yl)ethyl)-4-oxo-4,6,7,8-tetrahydropyrrolo[1,2-a]pyrazine-6-carboxamide trifluoroacetate] | 2500 to 10000 | > 25000
CCc1cc(CNc2ncc3n(c2=O)[C@H](C(=O)NCc2cc4c(s2)CNC4)CC3)cc(-c2ccccc2)c1 [Compound 262] | < 500 | 500 to 2500
O=C(NCc1cc2c(s1)CNC2)[C@@H]1CCc2cnc(N[C@@H](c3ccccc3)C3CCCC3)c(=O)n21 [Compound 279, (S)-3-(((R)-cyclopentyl(phenyl)methyl)amino)-N-((5,6-dihydro-4H-thieno[2,3-c]pyrrol-2-yl)methyl)-4-oxo-4,6,7,8-tetrahydropyrrolo[1,2-a]pyrazine-6-carboxamide] | < 500 | < 500
